For this assay, the target named is T1, HEK cells stably transfected with tetracycline inducible hNR1 and hNR2A (Homo sapiens, UniProt Q05586+Q12879).
T1 construct: expressed in transfected cells; host or cells: HEK cells, stably transfected, tetracycline/doxycycline inducible
As to the kind of experiment: Assay 1: Cell-Based Assay, cytosolic calcium response to positive allosteric modulators (with 30 μM glycine and 300 nM L-glutamate, EC30). The conditions noted are these: Table 3; cytosolic calcium response, with 30 μM glycine and 300 nM L-glutamate (EC30); — = no plateau was reached. Put shortly: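 Cells induced 24 h with 7.5 μg mL^−1 doxycycline plus 500 μM (+)-ketamine, loaded 60 min at 37 °C with calcium dye in Mg-free HBSS (1.8 mM Ca, probenecid, 10 μM (+)-ketamine, pH 7.15). Peak RFU over 5 min after compound addition, scaled to 100 μM L-glutamate (100%) and 0 μM (0%); four-parameter Hill fit for EC50, max % if no plateau.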

T1 sequence (Q12879 23-1464, other chains not shown): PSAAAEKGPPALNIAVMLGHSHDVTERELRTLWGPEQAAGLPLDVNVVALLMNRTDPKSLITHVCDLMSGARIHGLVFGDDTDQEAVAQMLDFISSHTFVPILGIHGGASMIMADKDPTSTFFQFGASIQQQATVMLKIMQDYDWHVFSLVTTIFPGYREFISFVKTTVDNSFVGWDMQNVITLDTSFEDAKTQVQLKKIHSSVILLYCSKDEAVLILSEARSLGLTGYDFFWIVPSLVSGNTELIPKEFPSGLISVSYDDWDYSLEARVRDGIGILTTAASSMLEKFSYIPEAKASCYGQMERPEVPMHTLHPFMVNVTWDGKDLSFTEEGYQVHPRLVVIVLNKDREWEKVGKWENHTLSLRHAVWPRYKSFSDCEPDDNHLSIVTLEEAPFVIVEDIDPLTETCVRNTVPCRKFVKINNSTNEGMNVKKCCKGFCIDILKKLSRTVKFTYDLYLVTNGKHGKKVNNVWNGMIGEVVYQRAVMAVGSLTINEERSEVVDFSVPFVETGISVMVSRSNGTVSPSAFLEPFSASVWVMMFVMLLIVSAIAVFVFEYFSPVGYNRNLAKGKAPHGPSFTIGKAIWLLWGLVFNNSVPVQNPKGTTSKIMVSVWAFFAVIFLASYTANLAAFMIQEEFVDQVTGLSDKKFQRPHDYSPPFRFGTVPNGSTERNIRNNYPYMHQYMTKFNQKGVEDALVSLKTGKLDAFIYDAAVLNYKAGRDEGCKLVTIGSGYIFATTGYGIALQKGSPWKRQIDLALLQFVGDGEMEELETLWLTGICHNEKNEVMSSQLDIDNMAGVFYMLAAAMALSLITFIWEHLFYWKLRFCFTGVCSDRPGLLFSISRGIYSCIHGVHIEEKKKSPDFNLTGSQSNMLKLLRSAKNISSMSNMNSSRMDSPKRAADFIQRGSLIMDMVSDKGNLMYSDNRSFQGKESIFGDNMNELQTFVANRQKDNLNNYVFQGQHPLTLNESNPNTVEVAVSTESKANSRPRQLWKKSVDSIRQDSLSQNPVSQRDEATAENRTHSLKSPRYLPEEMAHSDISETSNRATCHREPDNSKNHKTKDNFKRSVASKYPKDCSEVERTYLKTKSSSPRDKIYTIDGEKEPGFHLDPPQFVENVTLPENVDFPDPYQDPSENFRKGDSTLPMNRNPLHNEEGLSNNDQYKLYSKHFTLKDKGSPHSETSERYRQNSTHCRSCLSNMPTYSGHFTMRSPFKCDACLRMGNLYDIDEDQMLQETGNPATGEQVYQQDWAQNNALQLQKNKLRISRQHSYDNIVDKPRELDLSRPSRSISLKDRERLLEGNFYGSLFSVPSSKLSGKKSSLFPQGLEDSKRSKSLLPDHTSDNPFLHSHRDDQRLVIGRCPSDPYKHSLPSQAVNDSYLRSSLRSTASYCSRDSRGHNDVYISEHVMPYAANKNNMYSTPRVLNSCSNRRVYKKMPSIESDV

In the case of `Cc1sc2nc(Cn3nc(C(F)(F)F)cc3Cl)cc(=O)n2c1C(O)C(F)(F)F` (stereo not shown) [compound 203, 7-[[5-chloro-3-(trifluoromethyl)pyrazol-1-yl]methyl]-2-methyl-3-(2,2,2-trifluoro-1-hydroxy-ethyl)thiazolo[3,2-a]pyrimidin-5-one], the EC50 (in general, the concentration at which the effect is half-maximal) was 5850 nM.

For `CCNC(=O)c1c(C)sc2nc(CN(CC)c3ccc(Br)cn3)cc(=O)n12` [compound 204, 7-[[(5-bromo-2-pyridyl)-ethyl-amino]methyl]-N-ethyl-2-methyl-5-oxo-thiazolo[3,2-a]pyrimidine-3-carboxamide], the EC50 worked out at 5120 nM.

With `CCNC(=O)c1c(C(F)(F)F)sc2nc(CN(CC)c3ccc(F)cn3)cc(=O)n12` [compound 205, N-ethyl-7-[[ethyl-(5-fluoro-2-pyridyl)amino]methyl]-5-oxo-2-(trifluoromethyl)thiazolo[3,2-a]pyrimidine-3-carboxamide], the EC50 worked out at 1120 nM.

With `O=c1cc(Cn2nc(C(F)(F)F)cc2Cl)nc2sc(C(F)(F)F)c(N3CCC3)n12` [compound 206, 3-(Azetidin-1-yl)-7-[[5-chloro-3-(trifluoromethyl)pyrazol-1-yl]methyl]-2-(trifluoromethyl)thiazolo[3,2-a]pyrimidin-5-one], the EC50 was found to be 7190 nM.

As to `COc1cc(C(F)(F)F)nn1Cc1cc(=O)n2c(C3CC3C#N)c(C)sc2n1` (stereo not shown) [compound 209, 2-[7-[[5-methoxy-3-(trifluoromethyl)pyrazol-1-yl]methyl]-2-methyl-5-oxo-thiazolo[3,2-a]pyrimidin-3-yl]cyclopropanecarbonitrile], the EC50 stood at 66.6 nM.

Consider `COc1cc(C(F)(F)F)n(Cc2cc(=O)n3c(C4CC4C#N)c(C)sc3n2)n1` (stereo not shown) [compound 210, 2-[7-[[3-methoxy-5-(trifluoromethyl)pyrazol-1-yl]methyl]-2-methyl-5-oxo-thiazolo[3,2-a]pyrimidin-3-yl]cyclopropanecarbonitrile], for which the EC50 turned out to be 8920 nM.

Take `CCc1sc2nc(Cn3nc(C(F)(F)F)cc3Cl)cc(=O)n2c1C(C)=O` [compound 211, 3-acetyl-7-[[5-chloro-3-(trifluoromethyl)pyrazol-1-yl]methyl]-2-ethyl-thiazolo[3,2-a]pyrimidin-5-one]: the EC50 worked out at 310 nM.

As for `CCc1sc2nc(Cn3nc(Cl)cc3C(F)(F)F)cc(=O)n2c1C(C)=O` [compound 212, 3-acetyl-7-[[3-chloro-5-(trifluoromethyl)pyrazol-1-yl]methyl]-2-ethyl-thiazolo[3,2-a]pyrimidin-5-one], the EC50 was 5840 nM.

With `CCc1sc2nc(Cn3nc(C(F)(F)F)cc3Cl)cc(=O)n2c1C1CC1C#N` (stereo not shown) [compound 213, 2-[7-[[5-chloro-3-(trifluoromethyl)pyrazol-1-yl]methyl]-2-ethyl-5-oxo-thiazolo[3,2-a]pyrimidin-3-yl]cyclopropanecarbonitrile], the concentration giving a half-maximal response (EC50) worked out at 66 nM.

For the compound `CCc1sc2nc(Cn3nc(Cl)cc3C(F)(F)F)cc(=O)n2c1C1CC1C#N` (stereo not shown) [compound 214, 2-[7-[[3-chloro-5-(trifluoromethyl)pyrazol-1-yl]methyl]-2-ethyl-5-oxo-thiazolo[3,2-a]pyrimidin-3-yl]cyclopropanecarbonitrile], the EC50 amounted to 180 nM.

As for `Cc1sc2nc(Cn3nc(C(F)(F)F)cc3Cl)cc(=O)n2c1Br` [compound 215, 3-bromo-7-[[5-chloro-3-(trifluoromethyl)pyrazol-1-yl]methyl]-2-methyl-thiazolo[3,2-a]pyrimidin-5-one], the EC50 stood at 91.1 nM.

Regarding `Cc1sc2nc(Cn3nc(Cl)cc3C(F)(F)F)cc(=O)n2c1Br` [compound 216, 3-bromo-7-[[3-chloro-5-(trifluoromethyl)pyrazol-1-yl]methyl]-2-methyl-thiazolo[3,2-a]pyrimidin-5-one], the EC50 was 59.4 nM.

`COc1sc2nc(Cn3nc(C(F)(F)F)cc3Cl)cc(=O)n2c1Cl` [compound 217, 3-chloro-7-[[5-chloro-3-(trifluoromethyl)pyrazol-1-yl]methyl]-2-methoxy-thiazolo[3,2-a]pyrimidin-5-one]: the EC50 came out at 4740 nM.
